≈ marks a conversion by molar mass, not a printed value. Like-named read-outs stand apart in the source and are kept apart here.

One series concerns Micrococcus Sp 1810E. Description: Determination of Minimum Inhibitory Concentrations (MIC), agar dilution. Format: cell-based. Conditions: SP1810E. From the text: (§1) Biological testing of a number of compounds of the invention has provided the results shown below;-the test compounds are identified by their Example Numbers: 1. Determination of Minimum Inhibitory Concentrations (MIC)
(§2) Serial two-fold dilutions of freshly prepared test solutions were made into Oxoid No. 1 Nutrient agar with or without added enrichment and poured into petri diches. Plates were inoculated with a multipoint inoculator with inoculum containing approximately 10^5 colony forming units of the organisms shown in the following Tables, all of which organisms are clinical isolates. The MIC, quoted in the Tables as µg/ml, was read after 18 hours incubation at 37°C as the lowest concentration which inhibited growth.. N.T. means not tested.

The subject of the next series is Staph.aureus 853E. The description is as above. Type of series: cell-based. To be noted: Staphylococcus aureus.
Description: as §1, §2

Another series relates to E. coli 851E. The series is described as above. Format: cell-based. To be noted: Escherichia coli.
Description: as §1, §2

The test system of another series is K. aerogenes 1522E. Described as above. Format: cell-based. To be noted: Klebsiella aerogenes.
Description: as §1, §2

The subject of a further series is S. marcescens 1324E. The description is as above. Format: cell-based. Conditions: Serratia marcescens.
Description: as §1, §2

For the next series, the system named is E. cloacae 1321E. The series is described as above. Conditions: Enterobacter cloacae. Format: cell-based.
Description: as §1, §2

A further series concerns E. cloacae 1051E. The description is as above. Type of series: cell-based. Conditions: Enterobacter cloacae.
Description: as §1, §2

A further series deals with H. influenzae 1184E. The series is described as above. To be noted: Haemophilus influenzae. Type of series: cell-based.
Description: as §1, §2

A short description of another series: Toxicity (LD50) in mice. Conditions: mouse, in vivo, ip; administered intraperitoneally to mice.
Where [1] appears, read: Micrococcus Sp 1810E, clinical isolate, Oxoid No. 1 Nutrient agar, approximately 10^5 colony forming units, 18 hours at 37°C, read-out: MIC.
Setting [2] is: Staph.aureus 853E, clinical isolate, Oxoid No. 1 Nutrient agar, approximately 10^5 colony forming units, 18 hours at 37°C, read-out: MIC.
[3] abbreviates: E. coli 851E, clinical isolate, Oxoid No. 1 Nutrient agar, approximately 10^5 colony forming units, 18 hours at 37°C, read-out: MIC.
The mark [4] stands for this setting: K. aerogenes 1522E, clinical isolate, Oxoid No. 1 Nutrient agar, approximately 10^5 colony forming units, 18 hours at 37°C, read-out: MIC.
Where [5] appears, read: S. marcescens 1324E, clinical isolate, Oxoid No. 1 Nutrient agar, approximately 10^5 colony forming units, 18 hours at 37°C, read-out: MIC.
Setting [6] is: E. cloacae 1321E, clinical isolate, Oxoid No. 1 Nutrient agar, approximately 10^5 colony forming units, 18 hours at 37°C, read-out: MIC.
[7] abbreviates: E. cloacae 1051E, clinical isolate, Oxoid No. 1 Nutrient agar, approximately 10^5 colony forming units, 18 hours at 37°C, read-out: MIC.
The mark [8] stands for this setting: H. influenzae 1184E, clinical isolate, Oxoid No. 1 Nutrient agar, approximately 10^5 colony forming units, 18 hours at 37°C, read-out: MIC.

As for `CC1=C(C(=O)O)N2C(=O)CC2S1` (single isomer, unassigned) [Example 6], the MIC in the series with Micrococcus Sp 1810E (setting [1]) was found to be 0.2 µg/mL (≈ 1.08 µM); with Staph.aureus 853E (setting [2]) it was 1 µg/mL (≈ 5.4 µM); with E. coli 851E (setting [3]) it was 8 µg/mL (≈ 43.2 µM); with K. aerogenes 1522E (setting [4]), 16 µg/mL (≈ 86.4 µM); in the series with S. marcescens 1324E (setting [5]), 8 µg/mL (≈ 43.2 µM); in the series on E. cloacae 1321E (setting [6]), 8 µg/mL (≈ 43.2 µM). Besides, the values for the MIC with E. cloacae 1051E (setting [7]) and in the series with H. influenzae 1184E (setting [8]) were 16 µg/mL (≈ 86.4 µM) and 4 µg/mL (≈ 21.6 µM), respectively.

Turning to `O=C(O)C1=C(CCO)SC2CC(=O)N12` (racemic) [Example 11, Potassium (5RS)-2-(2-hdroxethyl)pen-2-em-3-carboxylate], the MIC is below 0.1 µg/mL with Micrococcus Sp 1810E (setting [1]); 0.5 µg/mL in the series on Staph.aureus 853E (setting [2]); 4 µg/mL in the series on E. coli 851E (setting [3]); 8 µg/mL in the series on K. aerogenes 1522E (setting [4]); 8 µg/mL with S. marcescens 1324E (setting [5]); 4 µg/mL with E. cloacae 1321E (setting [6]). For the same compound, the MIC with E. cloacae 1051E (setting [7]) and with H. influenzae 1184E (setting [8]) was 8 µg/mL throughout.

Turning to `CCCC1=C(C(=O)O)N2C(=O)CC2S1` (racemic) [Example 28, (5RS)-2-ProD^ylpen-2-em-3-carboxylic acid], the MIC was below 0.1 µg/mL with Micrococcus Sp 1810E (setting [1]); below 0.1 µg/mL in the series on Staph.aureus 853E (setting [2]); 0.5 µg/mL (≈ 2.34 µM) in the series with E. coli 851E (setting [3]); 0.5 µg/mL (≈ 2.34 µM) with K. aerogenes 1522E (setting [4]); 1 µg/mL (≈ 4.69 µM) with S. marcescens 1324E (setting [5]); 0.5 µg/mL (≈ 2.34 µM) with E. cloacae 1321E (setting [6]). The MIC with E. cloacae 1051E (setting [7]) came out at 4 µg/mL (≈ 18.8 µM); in the series with H. influenzae 1184E (setting [8]), 1 µg/mL (≈ 4.69 µM).

The LD50 is the dose at which mortality reaches 50%. `CCC1=C(C(=O)[O-])N2C(=O)CC2[S+]1[O-].[K+]` (racemic) [Example 36, Potassium (5RS)-2-ethylpen-2-em-3-carboxylate-1-oxide] registered a median lethal dose (LD50) in the series “Toxicity (LD50) in mice” above 500 mg/kg. The MIC against Micrococcus Sp 1810E (Micrococcus, 18 h) was 0.1 µg/mL; against Staph.aureus 853E (853E, 18 h), 0.5 µg/mL; against E. coli 851E (851E, 18 h), 8 µg/mL; with K. aerogenes 1522E (1522E, 18 h) it was 8 µg/mL; in the series with S. marcescens 1324E (1324E, 18 h) it was 8 µg/mL; against E. cloacae 1321E (1321E, 18 h), 8 µg/mL. In addition, the MIC against E. cloacae 1051E (1051E, 18 h) came out at 8 µg/mL; against H. influenzae 1184E (1184E, 18 h), 2 µg/mL.

For `O=C([O-])C1=C(CCOC2CCCCO2)SC2CC(=O)N12.[K+]` (racemic) [Example 43, Potassium (5RS)-2-[2-(tetrahydropyran-2-yloxy)ethyl]-pen-2-em-3-carboxylate], the LD50 in “Toxicity (LD50) in mice” was above 500 mg/kg.

Consider `COCC1=C(C(=O)O)N2C(=O)CC2S1` (racemic) [Example 52, Potassium (5RS)-2-methoxymethylen-2-em-3-carboxylate], for which the MIC in the series on Micrococcus Sp 1810E (setting [1]) turned out to be 0.2 µg/mL; in the series with Staph.aureus 853E (setting [2]) it was 0.5 µg/mL; with E. coli 851E (setting [3]), 4 µg/mL; in the series on K. aerogenes 1522E (setting [4]), 4 µg/mL; in the series with S. marcescens 1324E (setting [5]), 4 µg/mL; in the series on E. cloacae 1321E (setting [6]), 2 µg/mL. Further, the MIC came out at 8 µg/mL in the series on E. cloacae 1051E (setting [7]) and 4 µg/mL in the series on H. influenzae 1184E (setting [8]).

Regarding `CCCCC1=C(C(=O)O)N2C(=O)CC2S1` (racemic) [Example 26, (5RS)2-n-Butylpen-2-em-3-carboxylic acid], the MIC in the series with Staph.aureus 853E (setting [2]) is 0.5 µg/mL (≈ 2.2 µM); in the series with E. coli 851E (setting [3]) it was 31 µg/mL (≈ 136 µM); with K. aerogenes 1522E (setting [4]), 31 µg/mL (≈ 136 µM); in the series on S. marcescens 1324E (setting [5]), 31 µg/mL (≈ 136 µM); in the series with E. cloacae 1321E (setting [6]), 31 µg/mL (≈ 136 µM); in the series on E. cloacae 1051E (setting [7]), 125 µg/mL (≈ 550 µM). Moreover, in the series with H. influenzae 1184E (setting [8]), the MIC is 4 µg/mL (≈ 17.6 µM).

For the compound `NC(=O)OCCC1=C(C(=O)O)N2C(=O)CC2S1` (racemic) [Example 18, (5RS)-2-(2-Carbamoyloxethyl)pen-2-em-3-carboxlic acid], the MIC is below 0.1 µg/mL in the series on Micrococcus Sp 1810E (setting [1]); below 0.1 µg/mL in the series with Staph.aureus 853E (setting [2]); 2 µg/mL (≈ 7.74 µM) in the series on E. coli 851E (setting [3]); 4 µg/mL (≈ 15.5 µM) in the series with K. aerogenes 1522E (setting [4]); 4 µg/mL (≈ 15.5 µM) with S. marcescens 1324E (setting [5]); 2 µg/mL (≈ 7.74 µM) in the series with E. cloacae 1321E (setting [6]). Also, the MIC in the series on E. cloacae 1051E (setting [7]) was 8 µg/mL (≈ 31 µM); in the series on H. influenzae 1184E (setting [8]), 2 µg/mL (≈ 7.74 µM).

As for `COCCC1=C(C(=O)[O-])N2C(=O)CC2S1.[Na+]` (racemic) [Example 45, Sodium (5RS)-2-(2-methoxyethyl)pen-2-em-3-carboxylate], the MIC against Micrococcus Sp 1810E (Micrococcus, 18 h) is below 0.1 µg/mL; in the series with Staph.aureus 853E (853E, 18 h), 0.5 µg/mL; in the series on E. coli 851E (851E, 18 h), 2 µg/mL; against K. aerogenes 1522E (1522E, 18 h), 4 µg/mL; with S. marcescens 1324E (1324E, 18 h), 8 µg/mL; in the series with E. cloacae 1321E (1321E, 18 h), 2 µg/mL. Also, the MIC in the series with E. cloacae 1051E (1051E, 18 h) came out at 8 µg/mL; against H. influenzae 1184E (1184E, 18 h) it was 4 µg/mL.

In the case of `O=C(CCl)OCCC1=C(C(=O)[O-])N2C(=O)CC2S1.[K+]` (racemic) [Example 57, Potassium (5RS)-2-[2-(2-chloroacetyl)oxyethyl]pen-2-em-3-carboxylate], the MIC worked out at 0.2 µg/mL in the series with Micrococcus Sp 1810E (Micrococcus, 18 h); 0.5 µg/mL in the series with Staph.aureus 853E (853E, 18 h); 8 µg/mL against E. coli 851E (851E, 18 h); 8 µg/mL against K. aerogenes 1522E (1522E, 18 h); 8 µg/mL in the series with S. marcescens 1324E (1324E, 18 h); 8 µg/mL in the series on E. cloacae 1321E (1321E, 18 h). In addition, the MIC in the series with E. cloacae 1051E (1051E, 18 h) stood at 16 µg/mL; in the series with H. influenzae 1184E (1184E, 18 h) it was 4 µg/mL.

For the compound `CNC(=O)OCCC1=C(C(=O)O)N2C(=O)CC2S1` (racemic) [Example 21], the MIC with Micrococcus Sp 1810E (setting [1]) is below 0.1 µg/mL; in the series on Staph.aureus 853E (setting [2]), 0.2 µg/mL (≈ 0.735 µM); in the series on E. coli 851E (setting [3]), 4 µg/mL (≈ 14.7 µM); in the series on K. aerogenes 1522E (setting [4]) it was 4 µg/mL (≈ 14.7 µM); in the series with S. marcescens 1324E (setting [5]), 4 µg/mL (≈ 14.7 µM); in the series with E. cloacae 1321E (setting [6]) it was 4 µg/mL (≈ 14.7 µM). Further, the values for the MIC in the series on E. cloacae 1051E (setting [7]) and in the series on H. influenzae 1184E (setting [8]) were 31 µg/mL (≈ 114 µM) and 4 µg/mL (≈ 14.7 µM), respectively.

In the case of `CC(=O)OCCC1=C(C(=O)O)N2C(=O)CC2S1` (racemic) [Example 13, Potassium (5RS)-2-(2-acetoxethyl)pen-2-em-3-carbolate], the MIC with Micrococcus Sp 1810E (setting [1]) is 0.2 µg/mL; in the series on Staph.aureus 853E (setting [2]), 0.5 µg/mL; in the series on E. coli 851E (setting [3]), 4 µg/mL; in the series with K. aerogenes 1522E (setting [4]), 8 µg/mL; in the series on S. marcescens 1324E (setting [5]), 62 µg/mL; in the series on E. cloacae 1321E (setting [6]) it was 2 µg/mL. Also, the MIC in the series with E. cloacae 1051E (setting [7]) came out at 16 µg/mL.

(Values after patent publication EP0000636A1, “Penem compounds, processes for their preparation, their use in pharmaceutical compositions and azetidinones used in their preparation” (GLAXO GROUP LIMITED, priority 1977, dated 1979).)
